{
  "source": "patent US20090156620A1",
  "about": "“[4-(6-FLUORO-7-METHYLAMINO-2,4-DIOXO-1,4-DIHYDRO-2H-QUINAZOLIN-3-YL)-PHENYL]-5-CHLORO-THIOPHEN-2-YL-SULFONYLUREA SALTS, FORMS AND METHODS RELATED THERETO” (Portola Pharmaceuticals, Inc., priority 2007, published 2009)",
  "key": {"[1]": {"test_system": "ADP-induced human platelet aggregation", "assay": "inhibition of ADP-mediated platelet aggregation in platelet-rich plasma (PRP assay)", "assay_type": "cell-based", "method": "The effect of testing the compound according to the invention on ADP-induced human platelet aggregation was assessed in a 96-well microtiter assay (see generally the procedures in Jantzen, H. M. et al. (1999) Thromb. Hemost. 81:111′-117) or standard cuvette light transmittance aggregometry using either human platelet-rich plasma (PRP) or human washed platelets.\nFor preparation of human platelet-rich plasma for aggregation assays, human venous blood was collected from healthy, drug-free volunteers into 0.38% sodium citrate (0.013 M, pH 7.0 final). Platelet-rich plasma (PRP) is prepared by centrifugation of whole blood at 160×g for 20 minutes at room temperature. […]\nFor cuvette light transmittance aggregation assays, serial dilutions (1:3) of test compounds were prepared in 100% DMSO in a 96 well V-bottom plate (final DMSO concentration in the cuvette was 0.6%). […] The aggregation reaction is recorded for ˜5 mins, and maximum extent of aggregation is determined by the difference in extent of aggregation at baseline, compared to the maximum aggregation that occurs during the five minute period of the assay. Inhibition of aggregation was calculated as the maximum aggregation observed in the presence of inhibitor, compared to that in the absence of inhibitor. […]"}, "[2]": {"biological_target": "T1, P2Y12 receptor on platelets (Homo sapiens, UniProt Q9H244)", "T1 construct": "endogenous in cells; host or cells: whole apyrase-washed human platelets (outdated from hospital blood banks, or fresh)", "T1 sequence (Q9H244 whole entry)": "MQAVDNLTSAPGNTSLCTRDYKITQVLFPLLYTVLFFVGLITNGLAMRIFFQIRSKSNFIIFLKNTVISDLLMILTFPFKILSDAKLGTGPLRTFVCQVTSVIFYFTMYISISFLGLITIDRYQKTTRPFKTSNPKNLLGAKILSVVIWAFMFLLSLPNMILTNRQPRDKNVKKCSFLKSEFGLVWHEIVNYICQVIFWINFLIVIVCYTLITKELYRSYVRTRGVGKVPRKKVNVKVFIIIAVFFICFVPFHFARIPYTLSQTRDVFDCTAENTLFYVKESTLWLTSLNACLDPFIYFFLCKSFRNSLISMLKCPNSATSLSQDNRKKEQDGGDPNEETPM", "assay": "platelet ADP receptor binding assay (ARB), inhibition of [3H]2-MeS-ADP binding to platelets", "method": "1. The Ability of Candidate Molecules to Inhibit the Binding of [3H]2-MeS-ADP to the P2Y12 Receptor on Platelets was Determined Using a Radioligand Binding Assay\nUtilizing this assay the potency of inhibition of such compounds with respect to [^3H]2-MeS-ADP binding to whole platelets is determined. Under the conditions described in II (3) below, the binding of [^3H]2-MeS-ADP is solely due to the interaction of this ligand with the P2Y12 receptor, in that all the specific binding measured in this assay is compatable with a P2Y12 antagonist (i.e., the specific binding is reduced to background levels by competition with an excess of P2Y12 antagonist, with no competition of binding when a P2Y1 antagonist is pre-incubated with the platelet preparation). […]\nA platelet ADP receptor binding assay (ARB) using the tritiated potent agonist ligand [^3H]2-MeS-ADP (Jantzen, H. M. et al. (1999) Thromb. Hemost. 81:111-117) has been adapted to the 96-well microtiter format. […] Total binding is determined in the absence of test compounds. […] The platelet-bound radioactivity on the filtermats is determined in a scintillation counter (Microbeta 1450, Wallac Inc., Gaithersburg, Md.). Specific binding is determined by subtraction of non-specific binding from total binding, and specific binding in the presence of test compounds is expressed as % of specific binding in the absence of test compound dilutions. […]"}, "[3]": {"assay": "solid form stability on storage at elevated temperature/humidity, by XRPD", "assay_type": "physicochemical", "conditions": "for Stability: further changes / Stability: XRPD; for Stability: storage at 40° C./75% RH, days as in the value", "method": "To 20 mg of [4-(6-fluoro-7-methylamino-2,4-dioxo-1,4-dihydro-2H-quinazolin-3-yl)-phenyl]-5-chloro-thiophen-2-yl-sulfonylurea in 3 mL of the various solvents, was added 1.1 eq. of the base in 1 mL solvent. The mixture was shaken for 2 hours and the solutions were left to evaporate down to half their volume to try to precipitate out the salt. […] Oils/emulsions and opaque liquids were left to maturate at 50° C./ambient in an 8 hour cycles for several weeks. […] Solid samples (crystalline and amorphous) were then filtered, dried and then analyzed to judge their purity, crystallinity and stability. Solids were analysed by ^1H NMR to confirm salt formation and analyzed by ion chromatography and TGA to obtain the stoichiometry of the salt."}, "[4]": {"conditions": "for Aqueous solubility**: aqueous thermodynamic solubility, 25° C., 24 hours, expressed as free base equivalents, 100 mg scale-up samples", "procedure": "The suspension was then filtered through a glass fibre C filter into a 96 well plate. […] Quantitation was by HPLC with reference to a standard solution of approximately 0.1 mg.ml^−1. in DMSO. Different volumes of the standard, diluted and undiluted sample solutions were injected.\nIf there was sufficient solid in the filter plate, the XRPD pattern was collected."}, "[5]": {"assay": "gravimetric vapour sorption (GVS)", "assay_type": "physicochemical", "conditions": "for GVS: Total weight change 0-90% RH: 25° C.; for GVS: XRPD post GVS: wrapped cells read: shows new form / matches stability samples / shows no change", "method": "Sorption isotherms were obtained using a Hiden IGASorp moisture sorption analyser, controlled by CFRSorp software. The sample temperature was maintained at 25° C. by a Huber re-circulating water bath. The humidity was controlled by mixing streams of dry and wet nitrogen, with a total flow rate of 250 ml.min^−1. […] (typical room conditions). A moisture sorption isotherm was performed as outlined below (2 scans giving 1 complete cycle). […] The software uses a least squares minimisation procedure together with a model of the mass relaxation, to predict an asymptotic value. […] The minimum equilibration time was set to 1 hour and the maximum to 4 hours. The sample was recovered after completion of the isotherm and re-analysed by XRPD."}, "[6]": {"conditions": "storage, time not stated (figure legend)"}, "[7]": {"conditions": "after a further 10 days at 60° C./75% RH"}, "[8]": {"conditions": "a further 4 days at 60° C./75% RH (figure legend)"}},
  "note": "“And” between values parts separate entries of the source, which are not always exact repeats. Equal values may be shown once. Read-outs that look alike come from different tables or passages of the source.",
  "data": [
    {"compound": "CNc1cc2[nH]c(=O)n(-c3ccc(NC(=O)NS(=O)(=O)c4ccc(Cl)s4)cc3)c(=O)c2cc1F", "note": "[Example 2, [4-(6-fluoro-7-methylamino-2,4-dioxo-1,4-dihydro-2H-quinazolin-3-yl)-phenyl]-5-chloro-thiophen-2-yl-sulfonylurea]", "values": [
      {"measurement": "IC50", "setting": "[1]", "result": "< 10", "unit": "µM"},
      {"measurement": "IC50", "setting": "[2]", "result": "< 0.05", "unit": "µM"}
    ]},
    {"compound": "CNc1cc2[nH]c(=O)n(-c3ccc(NC(=O)NS(=O)(=O)c4ccc(Cl)s4)cc3)c(=O)c2cc1F.[K]", "note": "[Potassium hydroxide, [4-(6-fluoro-7-methylamino-2,4-dioxo-1,4-dihydro-2H-quinazolin-3-yl)-phenyl]-5-chloro-thiophen-2-yl-sulfonylurea potassium salt]", "values": [
      {"measurement": "stability with respect to 40° C./75% RH by XRPD", "setting": "[3]", "result": "converts to an amorphous phase"},
      {"measurement": "Aqueous solubility**", "setting": "[4]", "result": 2700, "unit": "µg/mL"}
    ]},
    {"compound": "CNc1cc2[nH]c(=O)n(-c3ccc(NC(=O)NS(=O)(=O)c4ccc(Cl)s4)cc3)c(=O)c2cc1F.[Na]", "note": "[Sodium Ethoxide, [4-(6-fluoro-7-methylamino-2,4-dioxo-1,4-dihydro-2H-quinazolin-3-yl)-phenyl]-5-chloro-thiophen-2-yl-sulfonylurea sodium salt]", "values": [
      {"measurement": "GVS: Total weight change 0-90% RH", "setting": "[5]", "result": "8.8 wt %, little hysteresis,"},
      {"measurement": "GVS: XRPD post GVS", "setting": "[5]", "result": "XRPD post GVS shows new"},
      {"measurement": "Stability: further changes", "setting": "[3]; after 10 days at 40° C./75% RH", "result": "at 40° C./75% RH (no"},
      {"measurement": "Stability", "setting": "[3]; sodium salt", "result": "Some changes after 2 days"},
      {"measurement": "Aqueous solubility**", "setting": "[4]", "result": 7700, "unit": "µg/mL"}
    ]},
    {"compound": "CNc1cc2[nH]c(=O)n(-c3ccc(NC(=O)NS(=O)(=O)c4ccc(Cl)s4)cc3)c(=O)c2cc1F.[Na]", "note": "[Sodium hydroxide, [4-(6-fluoro-7-methylamino-2,4-dioxo-1,4-dihydro-2H-quinazolin-3-yl)-phenyl]-5-chloro-thiophen-2-yl-sulfonylurea sodium salt]", "values": [
      {"measurement": "Stability", "setting": "[3]; sodium salt", "result": "Amorphous after 3 days at"},
      {"measurement": "stability with respect to 40° C./75% RH by XRPD", "setting": "[3]; [6]", "result": "converts to an amorphous phase"}
    ]},
    {"compound": "CNc1cc2[nH]c(=O)n(-c3ccc(NC(=O)NS(=O)(=O)c4ccc(Cl)s4)cc3)c(=O)c2cc1F.N", "note": "[ammonium salt (form A), [4-(6-fluoro-7-methylamino-2,4-dioxo-1,4-dihydro-2H-quinazolin-3-yl)-phenyl]-5-chloro-thiophen-2-yl-sulfonylurea ammonium salt]", "values": [
      {"measurement": "stability with respect to 40° C./75% RH by XRPD", "setting": "[3]; [6]", "result": "improvements in crystallinity"}
    ]},
    {"compound": "CNc1cc2[nH]c(=O)n(-c3ccc(NC(=O)NS(=O)(=O)c4ccc(Cl)s4)cc3)c(=O)c2cc1F.[K]", "note": "[form C, [4-(6-fluoro-7-methylamino-2,4-dioxo-1,4-dihydro-2H-quinazolin-3-yl)-phenyl]-5-chloro-thiophen-2-yl-sulfonylurea potassium salt]", "values": [
      {"measurement": "XRPD after the GVS experiment", "setting": "[5]", "result": "reduced in crystallinity"},
      {"measurement": "pH", "setting": "[4]; pH of the suspension in the solubility measurement, potassium salt", "result": "8.7 and 8.8"},
      {"measurement": "Thermodynamic solubility in water", "setting": "[4]; water", "result": 4500, "unit": "µg/mL"}
    ]},
    {"compound": "[4-(6-fluoro-7-methylamino-2,4-dioxo-1,4-dihydro-2H-quinazolin-3-yl)-phenyl]-5-chloro-thiophen-2-yl-sulfonylurea calcium salt [Calcium acetate]", "values": [
      {"measurement": "GVS: Total weight change 0-90% RH", "setting": "[5]", "result": "13 wt %, mostly 80-90% RH,"},
      {"measurement": "GVS: XRPD post GVS", "setting": "[5]", "result": "XRPD post GVS matches"},
      {"measurement": "stability by XRPD", "setting": "[3]; 3 days at 40° C./75% RH", "result": "remains stable"},
      {"measurement": "Stability: further changes", "setting": "[3]; [7]", "result": "No changes"},
      {"measurement": "Stability", "setting": "[3]", "result": "No changes after 3 days"},
      {"measurement": "stability by XRPD", "setting": "[3]; [8]", "result": "remains stable"}
    ]},
    {"compound": "[4-(6-fluoro-7-methylamino-2,4-dioxo-1,4-dihydro-2H-quinazolin-3-yl)-phenyl]-5-chloro-thiophen-2-yl-sulfonylurea tromethamine salt", "values": [
      {"measurement": "GVS: Total weight change 0-90% RH", "setting": "[5]", "result": "4.1 wt %, little hysteresis,"},
      {"measurement": "GVS: XRPD post GVS", "setting": "[5]", "result": "XRPD post GVS matches"},
      {"measurement": "stability by XRPD", "setting": "[3]; 3 days at 40° C./75% RH", "result": "some subtle changes"},
      {"measurement": "Stability: further changes", "setting": "[3]; [7]", "result": "at 40° C./75% RH but no"},
      {"measurement": "Stability", "setting": "[3]", "result": "Some changes after 3 days"},
      {"measurement": "stability by XRPD", "setting": "[3]; [8]", "result": "no further changes"}
    ]}
  ]
}
